Structures are written as SMILES. “Also recorded” adds a separate entry of the source.

Data set [1] concerns the target T1, human A3AR (Homo sapiens, UniProt P0DMS8).
T1 sequence (P0DMS8 1-318): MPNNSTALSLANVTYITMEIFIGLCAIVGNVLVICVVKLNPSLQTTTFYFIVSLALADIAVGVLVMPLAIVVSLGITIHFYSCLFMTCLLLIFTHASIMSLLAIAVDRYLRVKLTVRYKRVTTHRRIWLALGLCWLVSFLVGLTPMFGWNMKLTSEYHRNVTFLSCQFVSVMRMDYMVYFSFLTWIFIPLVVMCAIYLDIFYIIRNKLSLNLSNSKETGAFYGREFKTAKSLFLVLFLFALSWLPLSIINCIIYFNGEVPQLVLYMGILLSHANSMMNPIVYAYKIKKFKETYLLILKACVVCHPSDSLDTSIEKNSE
Kind of data set: Radioligand binding assay, displacement of [3H]HEMADO in CHO cell membranes. The note with it: for A1/A3: A3AR selectivity vs A1AR; for A1/A3 / A2A/A3: ratio of Ki values; for A2A/A3: A3AR selectivity vs A2AAR; for Ki: [3H]HEMADO, CHO membranes, mean ± S.E., n = 3-5, read-out: hA3R (Ki nM). As to the method: In the case of A2BAR, the potency of selected compounds was determined through a functional GloSensor cAMP assay.
(§1) All pharmacological methods followed the procedures as described earlier. In brief, membranes for radioligand binding were prepared from CHO cells stably transfected with human adenosine receptor subtypes through two centrifugations at different speeds. The first low-speed (1000 g) centrifugation allowed the removing of cell fragments and nuclei, while the second, performed at high speed (100,000 g), allowed the precipitation of the crude membrane fractions.
(§2) The binding affinity of the novel compounds was evaluated using radioligand competition experiments in CHO cells stably expressing hA1AR, hA2AAR, and hA3AR subtypes. […] Results were expressed as Ki values (dissociation constants), which were calculated with the program GraphPad (GraphPAD Software, San Diego, CA, USA). Each concentration was tested three–five times in duplicate and the values are given as the mean ± standard error (S.E.).
On the technique in general: Displacement assays read how much labelled ligand stays bound in the presence of the test substance.

Data set [2] deals with PC3 prostate cancer cell line. In words: Sulforhodamine B (SRB) cell growth inhibition assay. The note with it: for GI50 / CC50 / IC100: Homo sapiens, 48 h; for CC50: read-out: LC50 (μM); for IC100: read-out: TGI (μM); for TGI: PC3, 48 h, concentration to inhibit 100% of cell growth, mean ± SD.
The target of data set [3] is T2, human recombinant A1AR (Homo sapiens, UniProt P30542).
T2 sequence (P30542 1-326): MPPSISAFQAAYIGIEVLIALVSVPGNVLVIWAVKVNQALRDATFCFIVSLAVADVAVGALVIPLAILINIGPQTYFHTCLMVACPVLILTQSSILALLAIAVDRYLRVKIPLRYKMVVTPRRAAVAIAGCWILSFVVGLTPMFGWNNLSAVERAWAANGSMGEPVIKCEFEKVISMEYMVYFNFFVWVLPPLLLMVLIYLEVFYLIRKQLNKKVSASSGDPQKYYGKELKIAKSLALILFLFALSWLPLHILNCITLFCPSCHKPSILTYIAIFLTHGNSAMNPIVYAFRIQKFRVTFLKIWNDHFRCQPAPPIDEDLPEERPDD
In words: Radioligand binding assay, displacement of [3H]CCPA in CHO cell membranes. The note with it: mean ± S.E., n = 3-5, read-out: hA1R (Ki nM). As to the method: (§3) [^3H]CCPA (2-chloro-N^6-cyclopentylAdo), [^3H]NECA (5′-N-ethylcarboxamidoAdo), and [^3H]HEMADO (2-hexynyl-N^6-methylAdo) were used as respective radioligands. The results are reported as Ki values in nM (± standard errors) (Table 1). In the case of A2BAR, the potency of selected compounds was determined through a functional GloSensor cAMP assay.
as §1, §2

Data set [4] concerns the target human recombinant A2AAR (Homo sapiens, UniProt P29274). Kind of data set: Radioligand binding assay, displacement of [3H]NECA in CHO cell membranes. The note with it: mean ± S.E., n = 3-5, read-out: hA2AR (Ki nM). The procedure: as §3, §1, §2
The target of data set [5] is T1, human A3AR. Kind of data set: GloSensor cAMP accumulation assay (agonism/antagonism) at A3AR in CHO cells. Further details: expressed in transfected cells; host or cells: CHO cells stably expressing A3AR and the GloSensor biosensor plasmid. The data set is classed as cell-based. The note with it: for IC50: antagonism: counteracting agonist (NECA 1 μM) induced decrease of cAMP, forskolin 10 μM, mean ± S.E.; for functional behaviour at A3AR (agonist/antagonist): forskolin 10 µM stimulated cAMP, compared to Cl-IB-MECA. The procedure: CHO cells stable expressing A2B or A3ARs and the plasmid encoding the biosensor were used to study functional agonism and antagonism of understudy ligands. The desired cell number was incubated in equilibration medium containing a 3% v/v GloSensor cAMP reagent stock solution, 10% FBS and 87% of CO2 independent media. After 2 h of incubation, cells were dispensed in wells of 384 well plate and when a steady-state basal signal was obtained the agonism profile was studied, adding to wells the reference agonist NECA or compounds at different concentrations. In the case of the Gi coupled receptor A3AR Forskolin (FSK) 10 μM was added 10 min after the agonists and various luminescence readings were performed at different incubation times.
The antagonist profile of the compounds was evaluated by assessing their ability to counteract an agonist-induced increase or decrease (A2B and A3ARs, respectively) of cAMP accumulation. The cells were incubated with different antagonist concentrations and then treated with a fixed dose of NECA (10 μM for A2BAR and 1 μM for A3AR). FSK 10 μM was added 10 min after the agonists and various luminescence reads were performed at different incubation times.
Responses were expressed as percentage of the maximal relative luminescence units (RLU) and concentration–response curves were fitted by a nonlinear regression with the Prism program (GraphPAD Software, San Diego, CA, USA). The agonist or antagonist profile of compounds was expressed as EC50 or IC50, respectively. Each concentration was tested three–five times in duplicate and the values are given as the mean ± S.E.
(In general: cAMP levels reflect the balance of adenylyl cyclase and phosphodiesterase activity.)

Data set [6] concerns human prostate (PC3), colon (Caco-2) and hepatocyte (Hep G2) carcinomas. Further details: method as in PMID 29763615. The conditions noted are these: all three tumor cell lines PC3, Caco-2, Hep G2; cited from earlier work.
In data set [7] the test system is hepatocellular carcinoma and moderate hepatic dysfunction. Further details: method as in PMID 33430312. The conditions noted are these: cited from earlier work.

Chain of human recombinant A2AAR (P29274 whole entry): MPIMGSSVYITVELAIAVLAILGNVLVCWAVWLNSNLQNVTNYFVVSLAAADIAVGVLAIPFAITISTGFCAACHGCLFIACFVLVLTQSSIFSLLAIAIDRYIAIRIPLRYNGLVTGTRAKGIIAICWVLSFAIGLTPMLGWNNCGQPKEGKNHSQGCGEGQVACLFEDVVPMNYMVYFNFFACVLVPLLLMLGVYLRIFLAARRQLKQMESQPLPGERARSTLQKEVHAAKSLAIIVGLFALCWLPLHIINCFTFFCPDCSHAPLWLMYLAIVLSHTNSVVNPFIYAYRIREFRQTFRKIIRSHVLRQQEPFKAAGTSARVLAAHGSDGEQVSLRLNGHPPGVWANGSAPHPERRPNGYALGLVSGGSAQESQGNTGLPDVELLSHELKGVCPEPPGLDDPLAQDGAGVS

What is called Ki is a measure of affinity in units of concentration, obtained from inhibition or displacement. What is called GI50 is the concentration that inhibits growth by half. Higher therefore signals less potent growth inhibition. By TGI is commonly meant the concentration at which net growth stops. Higher therefore signals less potent growth arrest. Consider `OC[C@H]1O[C@@H](n2cnc3c(NCC(c4ccccc4)c4ccccc4)nc(I)nc32)[C@H](O)[C@@H]1O` [Compound 9, 2-Iodo-N^6-(2,2-diphenylethyl)adenosine], for which, in data set [1], the A1/A3 worked out at 17 fold, the A2A/A3 was 113 fold and the Ki amounted to 11 ± 1.8 nM. In data set [2], the GI50 was found to be 24 ± 1.2 µM, the CC50 came to 94 ± 3.5 µM, the IC100 was determined as 48 µM and the “TGI” value amounted to 48 ± 3.5 µM. In addition, the Ki in data set [3] came out at 182 ± 25.4 nM. Besides, the Ki in data set [4] was determined as 1240 ± 253 nM.
As a reminder, the IC50 is the concentration at which inhibition is half-maximal. A high value points to a need for much substance. For the compound `OC[C@H]1O[C@@H](n2cnc3c(NCC(c4ccccc4)c4ccccc4)nc(C#Cc4ccccc4)nc32)[C@H](O)[C@@H]1O` [Compound 12, N^6-(2,2-Diphenylethyl)-2-phenylethynyladenosine], in data set [5], the IC50 came to 0.153 ± 0.012 µM and the “functional behaviour at A3AR (agonist/antagonist)” value is on record as “antagonists”. Moreover, in data set [1], the A1/A3 is reported as 2 fold, the A2A/A3 worked out at 4 fold and the Ki was 106 ± 25 nM. Moreover, in data set [2], the GI50 is 14 ± 0.9 µM, the CC50 was determined as 59 ± 10.1 µM, the IC100 was 29 µM and the “TGI” value was 29 ± 4.9 µM. Besides, in data set [3], the Ki worked out at 211 ± 53 nM. In addition, the Ki in data set [4] is 450 ± 84 nM.
As for `OC[C@H]1O[C@@H](n2cnc3c(NCC(c4ccccc4)c4ccccc4)nc(Cl)nc32)[C@H](O)[C@@H]1O` [Compound 16, 2-Chloro-N^6-(2,2-diphenylethyl)-adenosine], in data set [1], the A1/A3 stood at 6 fold, the A2A/A3 is on record as 2046 fold and the inhibitory constant (Ki) came out at 0.13 ± 0.01 nM. Besides, in data set [2], it took 35 ± 3.1 µM to inhibit growth by half (GI50), the CC50 amounted to 253 ± 11.5 µM, the IC100 stood at 94 µM and the “TGI” value was found to be 94 ± 4.1 µM. Further, the Ki in data set [3] turned out to be 0.76 ± 0.2 nM. In addition, in data set [4], the Ki was determined as 266 ± 35 nM.
Consider `OC[C@H]1O[C@@H](n2cnc3c(NCCc4ccccc4)nc(I)nc32)[C@H](O)[C@@H]1O` [Compound 8, 2-Iodo-N^6-(2-phenylethyl)adenosine], for which, in data set [1], the A1/A3 was 29 fold, the A2A/A3 came to 824 fold and the Ki is 5 ± 1.2 nM. In data set [2], the concentration for 50% growth inhibition (GI50) is 42 ± 2.7 µM, the CC50 was 301 ± 13.4 µM, the IC100 came to 113 µM and the “TGI” value was found to be 113 ± 6.7 µM. Moreover, the Ki in data set [3] came to 144 ± 32 nM. Besides, the inhibitory constant (Ki) in data set [4] worked out at 4120 ± 998 nM.
As for `CCCCC#Cc1nc(NCCc2ccccc2)c2ncn([C@@H]3O[C@H](CO)[C@@H](O)[C@H]3O)c2n1` [Compound 10, 2-Hexynyl-N^6-(2-phenylethyl)adenosine], in data set [5], the IC50 came out at 0.031 ± 0.006 µM and the “functional behaviour at A3AR (agonist/antagonist)” value is listed as “antagonists”. For the same compound, in data set [1], the A1/A3 stood at 86 fold, the A2A/A3 stood at 97 fold and the Ki was found to be 1.5 ± 0.3 nM. For the same compound, in data set [2], the GI50 amounted to 13 ± 1.6 µM, the CC50 was found to be 452 ± 10.5 µM, the IC100 is 77 µM and the “TGI” value turned out to be 77 ± 2.9 µM. For the same compound, in data set [3], the Ki was found to be 129 ± 8.2 nM. Moreover, in data set [4], the inhibitory constant (Ki) was 146 ± 48 nM.
On to `OC[C@H]1O[C@@H](n2cnc3c(NCCc4ccccc4)nc(C#Cc4ccccc4)nc32)[C@H](O)[C@@H]1O` [Compound 11, 2-Phenylethynyl-N^6-(2-phenethyl)adenosine], for which, in data set [5], the IC50 was found to be 0.079 ± 0.015 µM and the “functional behaviour at A3AR (agonist/antagonist)” value was “antagonists”. In data set [1], the A1/A3 was 213 fold, the A2A/A3 is on record as 785 fold and the Ki was 3.8 ± 0.6 nM. In addition, in data set [2], the GI50 stood at 2.5 ± 0.8 µM, the CC50 was 151 ± 8.9 µM, the IC100 was 19 µM and the “TGI” value was 19 ± 6.1 µM. For the same compound, the Ki in data set [3] was 809 ± 117 nM. Moreover, in data set [4], the Ki came to 2980 ± 271 nM.
Regarding `OC[C@H]1O[C@@H](n2cnc3c(NCCc4ccccc4)nc(SCCc4ccccc4)nc32)[C@H](O)[C@@H]1O` [Compound 13, N^6-(2-Phenylethyl)-2-phenylethylthioadenosine], in data set [1], the A1/A3 is on record as 9 fold, the A2A/A3 is reported as 112 fold and the Ki was 30 ± 7.1 nM. Further, in data set [2], the GI50 stood at 41 ± 4.2 µM, the CC50 is more than 500 µM, the IC100 is more than 500 µM and the “TGI” value was more than 500 µM. The Ki in data set [3] is 263 ± 19 nM. The Ki in data set [4] worked out at 3360 ± 752 nM.
What is called EC50 is the concentration that produces a half-maximal response. High values mean a need for much substance, low ones an effect from little substance. Regarding `OC[C@H]1O[C@@H](n2cnc3c(NCCc4ccccc4)nc(Cl)nc32)[C@H](O)[C@@H]1O` [Compound 15, 2-Chloro-N^6-(2-phenylethyl)adenosine], in data set [5], the EC50 was found to be 0.014 ± 0.0034 µM and the “functional behaviour at A3AR (agonist/antagonist)” value is “full A3AR agonist; also recorded: A3AR full agonists”. Besides, in data set [1], the A1/A3 is reported as 68 fold, the A2A/A3 is listed as 27,500 fold and the Ki stood at 0.024 ± 0.005 nM. Also, in data set [2], the GI50 worked out at 51 ± 5.2 µM, the CC50 was more than 500 µM, the IC100 stood at 262 µM and the “TGI” value is 262 ± 8.3 µM. The cytotoxic activity result in data set [2] (PC3, at concentrations up to 500 µM) is given as “no cytotoxic activity”. Further, in data set [3], the inhibitory constant (Ki) worked out at 1.64 ± 0.37 nM. Moreover, the inhibitory constant (Ki) in data set [4] came out at 660 ± 129 nM.
Turning to `CNC(=O)[C@H]1O[C@@H](n2cnc3c(NCc4cccc(I)c4)nc(Cl)nc32)[C@H](O)[C@@H]1O` [Cl-IB-MECA, 2-chloro-N^6-(3-iodobenzyl)adenosine-5′-N-methyluronamide, reference compound], in data set [2], the GI50 was found to be 18 ± 0.4 µM, the IC100 came to 44 µM and the concentration for total growth inhibition (TGI) was determined as 44 ± 3.3 µM. In addition, in data set [6], the “anticancer effect (cell growth inhibition)” value was “good anticancer effect”. In data set [7], the “primary end-point of phase II trial” value is “did not meet its primary end-point” and the “safety profile in phase II trial” value was “favorable safety profile”.

The record behind these values is article PMC8879107, “A3 Adenosine Receptor Antagonists with Nucleoside Structures and Their Anticancer Activity” (Pharmaceuticals, 2022).
